Where a chain is given by its changes, count along the chain named.
Columns and labels:
pig kidney FBPase K112A = target: T1, pig kidney FBPase K112A (Sus scrofa, UniProt P00636, K113A); assay: Malachite Green kinetic assay, K112A mutant; assay type: biochemical; conditions: enzyme K112A vs WT
T1 construct: His6 (C); made in house; host or cells: Escherichia coli BL21 (DE3)
T1 sequence (P00636 1-338 K113A): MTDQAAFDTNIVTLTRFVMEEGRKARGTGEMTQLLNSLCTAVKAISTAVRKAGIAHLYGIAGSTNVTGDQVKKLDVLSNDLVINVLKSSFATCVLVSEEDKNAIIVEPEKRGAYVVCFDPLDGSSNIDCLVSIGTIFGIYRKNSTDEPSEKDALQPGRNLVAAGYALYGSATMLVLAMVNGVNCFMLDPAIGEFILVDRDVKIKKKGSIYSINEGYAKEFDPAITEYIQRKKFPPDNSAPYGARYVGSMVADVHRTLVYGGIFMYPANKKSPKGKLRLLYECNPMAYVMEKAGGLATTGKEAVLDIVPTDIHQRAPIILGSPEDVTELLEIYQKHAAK
Procedure: (§1) For the kinetic assay, a standard curve was obtained from an ammonium molybdate Malachite Green inorganic phosphate assay (OD660 nm). The purified FBPase protein was dialyzed ×3 in 50 mM Tris buffer at pH 7.5 at 4°C. For enzyme concentration, absorbency values were recorded for all five mutant proteins using spectrophotometer readings at OD280 nm. To quantitate enzyme concentration, the enzymes were calculated based on the quantity of micrograms per microliter (µg/µl) present. Final concentration of WT and mutant enzymes was between 2.5 and 5.0 µg/µl. Using a colorimetric assay as described below, specific activity (SA) was determined. At last, all kinetic and binding assays described below were performed in 50 mM Tris pH 7.5.
(§2) Kinetic assays were performed for WT and mutant enzymes to identify functional differences between the WT enzyme and the mutants. […] Readings recorded at OD660 nm for each enzyme were applied to the standard curve equation. Micromoles of inorganic phosphate were calculated to determine the SA of mutant enzymes.
(§3) For each clone, the kinetic assay was performed in duplicates of triplicates. Malachite Geen was used to detect inorganic phosphate. Two separate clones were processed independently of the same mutant. All kinetic data were fit to symmetric sigmoidal curve using Origin software based on methods previously described [[27–29]]. More specifically, for kinetic parameters established via curve fitting (shown in Tables 1–3; and in Figure 5A,B), the equation y = d + (a − d)/1 + (x/c)^b was used where ‘x’ is represented by apparent Michelis constant (Km) when y = Vmax. […] P-values were significant at <0.001 and represent a comparison with the WT enzyme.

pig kidney FBPase Y113A = target: T2, pig kidney FBPase Y113A (Sus scrofa, UniProt P00636, Y114A); assay: Malachite Green kinetic assay, Y113A mutant; assay type: biochemical; conditions: enzyme Y113A vs WT
T2 construct: His6 (C); made in house; host or cells: Escherichia coli BL21 (DE3)
T2 sequence (P00636 1-338 Y114A): T1 sequence (P00636 1-338 K113A) with A113K, Y114A
Procedure: as §1, §2, §3

- greater binding to the FBP substrate compared with WT (pig kidney FBPase K112A): 2 ×
- greater binding to the FBP substrate compared with WT (pig kidney FBPase Y113A): 2 ×
Compound: O=C(COP(=O)(O)O)[C@@H](O)[C@H](O)[C@H](O)COP(=O)(O)O [FBP, fructose-1,6-bisphosphate]
